Measurements: patent US20200115698A1, “PHARMACEUTICAL COMBINATION FOR TREATMENT OF FABRY DISEASE AND USE THEREOF” (MEIJI PHARMACEUTICAL UNIVERSITY, priority 2017, published 2020)

T1: α-NAGA mutant (SEQ ID NO:8) (Homo sapiens, UniProt P17050, A191L/S188E)
T1 sequence (P17050 with tags, fused parts or gaps S188E/A191L): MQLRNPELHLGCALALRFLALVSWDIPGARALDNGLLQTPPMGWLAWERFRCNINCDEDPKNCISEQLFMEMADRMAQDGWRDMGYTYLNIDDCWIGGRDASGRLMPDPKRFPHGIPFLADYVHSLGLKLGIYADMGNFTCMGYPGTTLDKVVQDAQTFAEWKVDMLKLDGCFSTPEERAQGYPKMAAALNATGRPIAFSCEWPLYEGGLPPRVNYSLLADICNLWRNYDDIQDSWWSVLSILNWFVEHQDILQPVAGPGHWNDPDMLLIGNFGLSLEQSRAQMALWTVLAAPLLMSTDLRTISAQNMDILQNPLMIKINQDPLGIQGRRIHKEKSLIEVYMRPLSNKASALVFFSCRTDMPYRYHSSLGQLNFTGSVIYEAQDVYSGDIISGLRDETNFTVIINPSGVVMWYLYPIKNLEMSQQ

T2: α-NAGA mutant (Homo sapiens, UniProt P17050, A191L/S188E)
T2 sequence (P17050 with tags, fused parts or gaps S188E/A191L): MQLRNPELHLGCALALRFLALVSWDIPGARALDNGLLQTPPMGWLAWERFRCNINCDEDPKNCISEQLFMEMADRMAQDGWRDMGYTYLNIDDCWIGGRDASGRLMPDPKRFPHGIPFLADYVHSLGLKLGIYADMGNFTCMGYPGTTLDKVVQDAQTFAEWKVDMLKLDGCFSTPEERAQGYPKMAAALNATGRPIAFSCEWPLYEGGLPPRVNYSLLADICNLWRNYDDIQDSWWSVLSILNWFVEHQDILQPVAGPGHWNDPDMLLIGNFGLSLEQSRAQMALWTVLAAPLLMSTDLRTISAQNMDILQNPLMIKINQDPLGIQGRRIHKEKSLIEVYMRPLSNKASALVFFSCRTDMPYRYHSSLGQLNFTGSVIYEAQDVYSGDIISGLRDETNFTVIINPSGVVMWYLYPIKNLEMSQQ

B1: α-NAGA mutant: mutant human α-N-acetylgalactosaminidase, serine 188 to glutamic acid and alanine 191 to leucine, having α-galactosidase activity (SEQ ID NO:8 used) (protein)
chain: MQLRNPELHLGCALALRFLALVSWDIPGARALDNGLLQTPPMGWLAWERFRCNINCDEDPKNCISEQLFMEMADRMAQDGWRDMGYTYLNIDDCWIGGRDASGRLMPDPKRFPHGIPFLADYVHSLGLKLGIYADMGNFTCMGYPGTTLDKVVQDAQTFAEWKVDMLKLDGCFSTPEERAQGYPKMAAALNATGRPIAFSCEWPLYEGGLPPRVNYSLLADICNLWRNYDDIQDSWWSVLSILNWFVEHQDILQPVAGPGHWNDPDMLLIGNFGLSLEQSRAQMALWTVLAAPLLMSTDLRTISAQNMDILQNPLMIKINQDPLGIQGRRIHKEKSLIEVYMRPLSNKASALVFFSCRTDMPYRYHSSLGQLNFTGSVIYEAQDVYSGDIISGLRDETNFTVIINPSGVVMWYLYPIKNLEMSQQ

How the values were obtained:
[1] = molecular target: T1, α-NAGA mutant (SEQ ID NO:8); experiment: Screening of inhibitor (1): remaining enzyme activity of α-NAGA mutant with 4-methylumbelliferyl α-D-galactopyranoside; format: biochemical; settings: 400 μM compound, pH 4.6, 37° C., 30 minutes
Method: The screening of inhibitor was carried out as follows: An inhibitor candidate compound dissolved in purified water or DMSO was added to 20 ng of an α-NAGA mutant (SEQ ID NO:8) and 4 mM 4-methylumbelliferylα-D-galactopyranoside dissolved in 0.1 M phosphate-citrate buffer (pH 4.6) such that a concentration of the inhibitor candidate compound became 0.8, 1, or 400 μM, and the mixture thus obtained was caused to react at 37° C. for 30 minutes (the total amount was 50 μl). After the reaction, 950 μl of 0.2 M glycine buffer (pH 10.7) was added to stop the reaction. Then, released 4-methylumbelliferone was measured at an excitation wavelength of 355 nm and at a fluorescence wavelength of 460 nm with use of Wallac 1420 ARVO MX Multilabel Counter. Remaining enzyme activity was calculated based on the assumption that an enzyme activity value obtained in a case where purified water or DMSO is added instead of the inhibitor candidate compound is 100%.

α-NAGA mutant [2] = molecular target: T2, α-NAGA mutant; experiment: Screening of inhibitor (2): inhibition of enzyme activity of α-NAGA mutant; format: biochemical; settings: 0.1, 1, or 10 μM compound, pH 4.6, 37° C., 30 minutes; FIG. 1
Method: The second screening was carried out as follows: DGJ, GBS, N-C-DGJ, N-DGJ, or N-HE-DGJ dissolved in purified water or DMSO was added to 25 ng of an α-NAGA mutant and 4 mM 4-methylumbelliferylα-D-galactopyranoside dissolved in 0.1 M phosphate-citrate buffer (pH 4.6) such that a concentration of DGJ, GBS, N-C-DGJ, N-DGJ, or N-HE-DGJ became 0.1, 1, or 10 μM, and the mixture thus obtained was caused to react at 37° C. for 30 minutes (the total amount was 50 μl). After the reaction was finished, 950 μl of 0.2 M glycine buffer (pH 10.7) was added to stop the reaction. Then, released 4-methylumbelliferone was measured at an excitation wavelength of 355 nm and at a fluorescence wavelength of 460 nm with use of Wallac 1420 ARVO MX Multilabel Counter. Remaining enzyme activity was calculated based on the assumption that an enzyme activity value obtained in a case where purified water or DMSO is added instead of the inhibitor candidate compound is 100%. FIG. 1 is a view illustrating inhibition of enzyme activity of an α-NAGA mutant by DGJ.

α-NAGA mutant [3] = molecular target: T2, α-NAGA mutant; experiment: Calculation of inhibition constant Ki (Lineweaver-Burk plot); format: biochemical; settings: substrate 1-8 mM; DGJ 100-400 nM, GBS 200-800 nM; pH 4.6; FIG. 2
Method: Enzymatic analysis was carried out by using, as a reaction liquid, 50 ng of an α-NAGA mutant and 0.1 M phosphate-citrate buffer (pH 4.6) in which a 4-methylumbelliferylα-D-galactopyranoside substrate was dissolved at any of concentrations (1, 2, 4, 6, and 8 mM) (the total amount was 50 μl). In measuring inhibitory activity, reaction was carried out with a reaction liquid which contained DGJ at a concentration of 100, 200, or 400 nM or GBS at a concentration of 200, 400, or 800 nM. After the reaction was carried out at 37° C. for 10 minutes, 950 μl of 0.2 M glycine buffer (pH 10.7) was added to stop the reaction. Then, released 4-methylumbelliferone was measured at an excitation wavelength of 355 nm and at a fluorescence wavelength of 460 nm with use of Wallac 1420 ARVO MX Multilabel Counter. From these values, a Lineweaver-Burk plot was prepared and an inhibition constant Ki was calculated from slopes in the plot which correspond to respective concentrations of the inhibitor.

[4] = tested on: Fabry disease model mouse; settings: Fabry disease model mouse to which the α-NAGA mutant has been administered; cited from earlier work

Row | Molecule | inhibition effect on α-NAGA mutant (remaining enzyme activity) [1] | inhibition of enzyme activity of an α-NAGA mutant (remaining enzyme activity) (α-NAGA mutant [2]) | inhibition pattern from inhibition constant Ki (α-NAGA mutant [3]) | degradation of Gb3 and Lyso-Gb3 accumulated in organs [4]
1 | O=S(=O)(O)C1NC(CO)C(O)C(O)C1O (stereo not shown) [GBS, galactostatin bisulfite] | the inhibition effect was seen | had the effect of inhibiting activity of an α-NAGA mutant | inhibitory activity by competitive inhibition | 
2 | B1 |  |  |  | Gb3 and Lyso-Gb3 which are accumulated in organs are degraded
